The molecules below were run against HPK1 (Homo sapiens, UniProt Q92918) (assay: HPK1 Biochemical Assay (ADP-Glo luminescence; low ATP 10 μM or high ATP 200 μM)). Conditions: 2 nM HPK1, 10 μM ATP; read-out: Biochemical Potency (low ATP).
HPK1, sequence (Q92918 whole entry, species assumed): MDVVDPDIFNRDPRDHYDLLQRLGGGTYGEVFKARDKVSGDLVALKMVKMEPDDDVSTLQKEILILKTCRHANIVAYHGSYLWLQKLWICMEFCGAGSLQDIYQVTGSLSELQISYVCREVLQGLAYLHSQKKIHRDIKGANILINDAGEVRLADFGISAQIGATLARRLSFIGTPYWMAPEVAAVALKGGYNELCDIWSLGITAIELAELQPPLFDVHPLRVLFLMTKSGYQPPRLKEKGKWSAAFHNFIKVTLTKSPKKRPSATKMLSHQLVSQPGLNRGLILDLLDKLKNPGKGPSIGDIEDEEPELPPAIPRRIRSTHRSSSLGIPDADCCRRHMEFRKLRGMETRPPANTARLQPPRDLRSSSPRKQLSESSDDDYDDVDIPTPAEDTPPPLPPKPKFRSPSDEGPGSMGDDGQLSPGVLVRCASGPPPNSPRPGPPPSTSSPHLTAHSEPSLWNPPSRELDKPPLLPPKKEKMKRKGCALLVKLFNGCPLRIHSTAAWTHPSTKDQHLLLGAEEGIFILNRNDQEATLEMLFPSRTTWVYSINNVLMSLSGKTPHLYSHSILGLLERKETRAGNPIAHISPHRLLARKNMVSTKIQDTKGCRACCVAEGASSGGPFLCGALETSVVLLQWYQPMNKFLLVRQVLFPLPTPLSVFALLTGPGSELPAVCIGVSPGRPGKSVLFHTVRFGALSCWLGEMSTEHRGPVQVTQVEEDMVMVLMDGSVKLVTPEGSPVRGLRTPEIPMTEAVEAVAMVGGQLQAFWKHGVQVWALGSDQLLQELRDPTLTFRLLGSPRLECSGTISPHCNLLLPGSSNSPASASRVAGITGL

Structure (SMILES)	IC50 [nM]
Cc1cccnc1-c1nc2cc(Nc3ccc(N4CCC(F)(F)C4)c(N4CCCC4)n3)ncc2s1 [Example 280, 5-(3,3-Difluoropyrrolidin-1-yl)-N-[2-(3-methylpyridin-2-yl)-[1,3]thiazolo[5,4-c]pyridin-6-yl]-6-(pyrrolidin-1-yl)pyridin-2-amine]	1000 to 5000
Cc1cccnc1-c1nc2cc(Nc3ccc(N4CCC(F)(F)C4)c(N4C[C@@H]5C[C@H]4CN5C)n3)ncc2s1 [Example 281, 5-(3,3-Difluoropyrrolidin-1-yl)-6-[(1S,4S)-5-methyl-2,5-diazabicyclo[2.2.1]heptan-2-yl]-N-[2-(3-methylpyridin-2-yl)-[1,3]thiazolo[5,4-c]pyridin-6-yl]pyridin-2-amine]	< 100
CN(C)Cc1nc(Nc2cc3nc(NC(=O)c4c(F)cccc4F)sc3cn2)ccc1N1CCOCC1 [Example 282, N-[6-({6-[(Dimethylamino)methyl]-5-(morpholin-4-yl)pyridin-2-yl}amino)-[1,3]thiazolo[5,4-c]pyridin-2-yl]-2,6-difluorobenzamide]	< 100
Cc1cccnc1-c1nc2cc(Nc3ccc(C4CCOCC4)c(C4CCNC4)n3)ncc2s1 (centres unmarked) [Example 283, N-[2-(3-Methylpyridin-2-yl)-[1,3]thiazolo[5,4-c]pyridin-6-yl]-5-(oxan-4-yl)-6-(pyrrolidin-3-yl)pyridin-2-amine]	< 100
Cc1ccc(N2C[C@@H]3C[C@H]2CN3C)nc1Nc1cc2nc(-c3ncccc3C)sc2cn1 [Example 284, 3-methyl-6-[(1S,4S)-5-methyl-2,5-diazabicyclo[2.2.1]heptan-2-yl]-N-[2-(3-methylpyridin-2-yl)-[1,3]thiazolo[5,4-c]pyridin-6-yl]pyridin-2-amine]	100 to 1000

Second part, the molecule after the results:

IC50 [nM]	Structure (SMILES)
< 100	CN1C[C@@H]2C[C@H]1CN2c1cncc(Nc2cc3nc(-c4ccnc(N5CC[C@@H](O)C5)c4)sc3cn2)n1 [Example 263, (3R)-1-{4-[6-({6-[(1S,4S)-5-Methyl-2,5-diazabicyclo[2.2.1]heptan-2-yl]pyrazin-2-yl}amino)-[1,3]thiazolo[5,4-c]pyridin-2-yl]pyridin-2-yl}pyrrolidin-3-ol]
< 100	CN1C[C@@H]2C[C@H]1CN2c1nccc(Nc2cc3nc(-c4ccnc(N5CC[C@H](F)C5)c4)sc3cn2)n1 [Example 265, N-(2-{2-[(3S)-3-Fluoropyrrolidin-1-yl]pyridin-4-yl}-[1,3]thiazolo[5,4-c]pyridin-6-yl)-2-[(1S,4S)-5-methyl-2,5-diazabicyclo[2.2.1]heptan-2-yl]pyrimidin-4-amine]
< 100	CN1C[C@@H]2C[C@H]1CN2c1nccc(Nc2cc3nc(-c4ccnc(N5CC[C@H](O)C5)c4)sc3cn2)n1 [Example 266, (3S)-1-{4-[6-({2-[(1S,4S)-5-Methyl-2,5-diazabicyclo[2.2.1]heptan-2-yl]pyrimidin-4-yl}amino)-[1,3]thiazolo[5,4-c]pyridin-2-yl]pyridin-2-yl}pyrrolidin-3-ol]
< 100	CN1C[C@@H]2C[C@H]1CN2c1nccc(Nc2cc3nc(-c4ccnc(N5CC[C@@H](F)C5)c4)sc3cn2)n1 [Example 267, N-(2-{2-[(3R)-3-Fluoropyrrolidin-1-yl]pyridin-4-yl}-[1,3]thiazolo[5,4-c]pyridin-6-yl)-2-[(1S,4S)-5-methyl-2,5-diazabicyclo[2.2.1]heptan-2-yl]pyrimidin-4-amine]
< 100	Cc1cccnc1-c1nc2cc(Nc3ccc(N4CCC(F)(F)C4)c(C(C)(C)N)n3)ncc2s1 [Example 272, 6-(2-Aminopropan-2-yl)-5-(3,3-difluoropyrrolidin-1-yl)-N-[2-(3-methylpyridin-2-yl)-[1,3]thiazolo[5,4-c]pyridin-6-yl]pyridin-2-amine]
< 100	CCNCc1nc(Nc2cc3nc(-c4c(C)cccc4F)sc3cn2)ccc1N1CCC(F)(F)C1 [Example 279, 5-(3,3-Difluoropyrrolidin-1-yl)-6-[(ethylamino)methyl]-N-[2-(2-fluoro-6-methylphenyl)-[1,3]thiazolo[5,4-c]pyridin-6-yl]pyridin-2-amine]

Reference: patent US12649751B2 (Arcus Biosciences, Inc., priority 2022, dated 2026)
